Drawing on ChEMBL document CHEMBL1157539, “Thousands of chemical starting points for antimalarial lead identification” (Nature, 2010), this text covers XC50 for 34 compounds.

This assay has as its system Plasmodium falciparum. As to the kind of experiment: GSK_TCMDC: Inhibition of Plasmodium falciparum 3D7 in whole erythrocytes, using parasite LDH activity as an index of growth. The format is functional, organism-based. As to conditions: Plasmodium falciparum, 3D7.
As to `COc1cccc(Nc2nc(Nc3cccc(C#N)c3)cc(-c3ccncc3)n2)c1`, the XC50 is 764 nM.

Consider `COc1ccc(NC(=O)CCNc2cc(C)nc(Nc3ccccc3)n2)cc1`, for which the XC50 is 1100 nM. Take `Cc1cccc2nc(-c3cccc(-c4cccc(NC(=O)C5CC(=O)Nc6ccccc65)c4)c3)[nH]c12` (centres undefined): the XC50 was found to be 64.6 nM. `Cc1cc(C2CCN(CCCCNC(=O)c3ccc(NC(=O)c4ccc(Cl)cc4)cc3)CC2)c(C)cc1OCc1ccccn1` registered an XC50 of 801 nM. In turn, `O=C1C([N+](=O)[O-])=C(O)c2c(F)cccc21` had an XC50 of 149 nM. Next, `COCn1ncc2cc(-c3cccc(NC(=O)c4csc(NC(C)=O)n4)c3)ccc21`: 987 nM; `Clc1ccc(OCc2ccccc2)c(Cc2ccc(-c3nc4cnccc4[nH]3)o2)c1`: 754 nM; `O=C(/C=C/c1ccc(Cl)c(Cl)c1)NCCCCCN1CCC(NC(=O)Nc2ccc(C(F)(F)F)cc2)C1` (centres undefined): 513 nM.

In turn, `CC1(C)NC(N)=NC(=N)N1OCCCOc1c(Cl)cc(Cl)cc1Cl` showed an XC50 of 2.94 nM. Consider `CCCCCCC(C)(C)c1cc(O)c2c(c1)OC(C)(C)c1ccncc1-2`, for which the XC50 is 178 nM. `Cc1cc2[nH]c(-c3ccc(C(=O)NCCCN4CCN(c5cccc(Cl)c5)CC4)cc3F)nc2cc1Cl` yielded an XC50 of 479 nM. Next, `CC(C)(C)OC(=O)N[C@@H](CS(=O)(=O)CCNC(=N)COCc1ccccc1)C(=O)OC(C)(C)C`: 821 nM. Next, `CC1(C)C=C(c2ccncc2)c2cc(Cl)ccc2O1`: 430 nM; `N=C(N)c1ccc(Oc2ccc(C(=N)N)cc2)cc1`: 317 nM; `Cc1cccc2nc(-c3ccc(-c4cccc(CN5CCN(c6ccc(C#N)cn6)CC5)c4)s3)[nH]c12`: 1420 nM. Consider `NC1CCN(Cc2ccc(-c3cccc(-c4nc5ccccc5[nH]4)c3)cc2)C1` (centres undefined), for which the XC50 worked out at 849 nM. Under `OCCN1CCN(Cc2cccc(-c3cccc(-c4nc5cc(F)ccc5[nH]4)c3)c2)CC1` stands 706 nM; under `Oc1ccc2[nH]cc(C3=CCN(CCc4ccccc4)CC3)c2c1`, 313 nM; under `C/C=C1/CN2CC[C@H]1C[C@H]2[C@H](O)c1ccnc2ccc(O)cc12`, 491 nM. `O=C(NC1CC1)c1ccc(Cn2c(SCc3cccc(Cl)c3)nc3ccccc3c2=O)cc1` registered an XC50 of 422 nM. In turn, `CN(CCN1CCCC1)c1nc2cc(-n3cnc4cc(-c5ccc(Cl)cc5)sc4c3=O)ccc2[nH]1` showed an XC50 of 824 nM.

In turn, `Nc1nc(N)c2c(Cc3ccc(Br)cc3)cccc2n1` yielded an XC50 of 775 nM. The compound `O=C(NC(=O)c1ccccc1O)c1ccccc1O` gave an XC50 of 704 nM.

Consider `COc1ccc2nccc([C@@H](O)CN3CCC(NC(=O)Cc4ccc(Br)c5ccccc45)CC3)c2c1`, for which the XC50 was 820 nM. Take `O=C(Cc1cccnc1)N(Cc1ccc(-c2ccc(CNCc3cccnc3)cn2)cc1)C1CCN(Cc2ccccc2)CC1`: the XC50 worked out at 803 nM.

Consider `CCOC(=O)[C@H](Cc1cccc2ccccc12)NC(=O)[C@H](CCC(=O)OC(C)(C)C)NC(=O)c1ccc(N(C)Cc2cnc3nc(N)nc(N)c3n2)cc1`, for which the XC50 was 663 nM.

For the compound `Cc1[nH]c2cc(Cl)ccc2c1C1=CCN(CCN2CCOc3c(Br)cccc3C2=O)CC1`, the XC50 is 873 nM. `Nc1nc(N)c2c(Cl)c(N(Cc3ccccc3)Cc3ccccc3)ccc2n1` returned an XC50 of 192 nM. `O=c1cc(NCCCNCc2cc(Br)ccc2F)[nH]c2ccccc12` had an XC50 of 854 nM. Take `CC1CCN(CCNC(=O)c2ccc3c(=O)n(Cc4ccc(Cl)cc4)c(=S)[nH]c3c2)CC1`: the XC50 was determined as 704 nM. In turn, `COc1ccc(C2CC(=O)C3=C(C2)NC(C)=C(C(=O)OC2CCCC2)C3c2cccc(O)c2)cc1` (centres undefined) showed an XC50 of 1010 nM. `N#Cc1cccc(C(=O)N2CCOC(CCN3CCC(c4ccccc4)CC3)(c3ccc(Cl)c(Cl)c3)C2)c1` (centres undefined) displayed an XC50 of 1040 nM. Compound `Cc1nc(-c2nc(NCc3ccc4c(c3)OCO4)ncc2-c2ccsc2)sc1C` showed an XC50 of 103 nM. Consider `CCOC(=O)N(C)/N=C/[C@H](CCc1ccccc1)NC(=O)[C@H](CC(C)C)NC(=O)c1cc2cccc(OC)c2o1`, for which the XC50 turned out to be 556 nM.
